Results: EPA's ToxValDB 9.5 (doi:10.2903/j.efsa.2010.1905)
In brackets after ≈: the same amount, converted by molar mass.

Assays:
Colinus virginianus = conditions: for NOEC: reproduction developmental
Mus musculus = conditions: acute; oral; mortality
Pimephales promelas = conditions: chronic/long-term; duration: 32 days; growth
Apis mellifera = conditions: acute; oral; unspecified; mortality
Anas platyrhynchos = conditions: oral, mortality
Aphidius rhopalosiphi = test: LR50; higher = less toxic; conditions: not reported; mortality
Typhlodromus pyri = test: LR50; higher = less toxic; conditions: not reported; mortality
Neomysis kadiakensis = conditions: chronic/long-term; duration: 28 days; reproduction
Tagia sp. = conditions: acute; duration: 14 days; mortality
Cyprinus carpio = conditions: acute; duration: 96 hours; mortality
Daphnia magna = conditions: chronic/long-term; duration: 21 days; reproduction
[1] = subchronic, duration: 90 days, oral

CCCCOC(=O)[C@@H](C)Oc1ccc(Oc2ccc(C(F)(F)F)cn2)cc1 [Fluazifop-P-butyl]
LC50 (Colinus virginianus; acute, oral, diet, mortality): > 1070 mg/kg-day
LD50 (Colinus virginianus; acute, oral, mortality): > 2000 mg/kg-day
NOEC (Colinus virginianus): 86.8 mg/kg-day
NOAEL (Rattus norvegicus; chronic, mortality): 6.72 mg/kg-day
NOAEL (Rattus norvegicus; developmental, development): 2 mg/kg-day
NOAEL (Rattus norvegicus; [1]): 0.9 mg/kg-day
LD50 (Mus musculus): > 2000 mg/kg-day
NOEC (Pimephales promelas): 0.077 mg/L
LD50 (Apis mellifera): > 200 µg/piece
LD50 (Anas platyrhynchos; acute, unspecified): > 3960 mg/kg-day
LC50 (Anas platyrhynchos; short-term, feed): > 942 mg/kg-day
LR50 (Aphidius rhopalosiphi): 177 g/ha
LR50 (Typhlodromus pyri): 5.6 g/ha

C[C@@H](Oc1ccc(Oc2ccc(C(F)(F)F)cn2)cc1)C(=O)O [Fluazifop-P]
NOAEL (Rattus norvegicus; developmental, development): 2 mg/kg-day
NOAEL (Rattus norvegicus; [1]): 0.9 mg/kg-day
NOEC (Pimephales promelas): 1.46 mg/L

CCCCOC(=O)C(C)Oc1ccc(Oc2ccc(C(F)(F)F)cn2)cc1 (configuration not stated) [Fluazifop-butyl]
NOEC (Neomysis kadiakensis): 0.0477 mg/L
NOEC (Colinus virginianus): 3.95 mg/kg-day
NOAEL (Rattus norvegicus; reproduction developmental, reproduction): 6.72 mg/kg-day
LC50 (Tagia sp.): > 1000 mg/kg
LC50 (Cyprinus carpio): 1.31 µg/mL (≈ 3.42 µM)
NOEC (Daphnia magna): 0.25 mg/L
